Values of other authors in patent US20070265329A1, “Methods for the prevention of acute and delayed chemotherapy-induced nausea and vomiting (CINV)” (priority 2006, published 2007).
Read-outs that look alike come from different tables or passages of the source.

Columns and labels:
[1] = tested on: patients following moderately emetogenic chemotherapy
[2] = or 7 days
[3] = tested on: patients (acute phase CINV); settings: over 24 hours (acute phase); study of 233 patients
[4] = tested on: delayed onset CINV; settings: administered twice a day

SMILES | patients who did not vomit or need additional medication for nausea ([1]; days 2-5 following moderately emetogenic chemotherapy) [%] | patients who did not vomit or need additional medication for nausea ([1]; first day following moderately emetogenic chemotherapy) [%] | most common side effects ([1]; patients taking Aloxi) | still detectable in the systemic circulation at [2] [h] | clearance in cancer patients (compared with normal volunteers) | peak plasma concentrate (oral, 1 mg bid over seven days) [ng/mL] | complete response (no vomiting, no moderate or severe nausea, no rescue medication) [3] [%] | treatment of delayed onset CINV [4]
O=C1c2cccc3c2[C@H](CCC3)CN1[C@@H]1CN2CCC1CC2 [Aloxi®, palonosetron] | 64 | 72 | headache and constipation | ≥ 168 | – | – | – | –
CN1C2CCCC1CC(NC(=O)c1nn(C)c3ccccc13)C2 (centres unmarked) [Kytril®, granisetron] | – | – | – | – | approximately half that of normal volunteers | 6.0 | 81 | effective
